Laboratory results as given in patent publication US20230190835A1, “PROBIOTIC BACTERIA FOR TREATING ALZHEIMER'S DISEASE” (RRW B.V., priority 2020, published 2023).

System: C. elegans nematode strain with inducible amyloid-β accumulation (CL4176)
Assay: Alzheimer's disease paralysis assay
Format: in vivo
Text: The effect of probiotic bacteria and their combinations with other active agents has been studied in C. elegans nematode strains as an animal model for amyloidoses such as Alzheimer's disease. These strains accumulate amyloid-β peptides that form plaques in the nematodes and lead to paralysis of the animals. In certain strains, such as strain CL4176, Aβ accumulation occurs only in response to heat shock. Thus, the Alzheimer's disease pattern is inducible in these strains. The number of paralyzed nematodes after a certain period of time following induction of Aβ accumulation indicates the extent of Alzheimer's disease. Thus, the effect of certain substances to which the nematodes are exposed on the number of paralyzed animals is a measure of the anti-Alzheimer effect of these substances.
Nematodes of strain CL4176 were synchronized at the young larval stage and allowed to grow to the L4 stage on normal growth medium for 72 h at 16° C. The probiotic bacteria to be tested were added to the growth medium. Then the nematodes were exposed to the test substance and the temperature was increased to 25° C. This heat shock induced Aβ accumulation, simulating the onset of Alzheimer's disease. Approximately every 24 h, the number of animals that were still mobile and those that were paralyzed as a result of Aβ accumulation was determined.
C. elegans of strain CL4176 were exposed to a mixture of different probiotic bacteria at a bacterial concentration of 50 cfu (colony-forming units) in this assay. The bacterial mixture contained the following bacterial species: Enterococcus faecium, Bifidobacterium longum, Streptococcus thermophilus, Lactobacillus acidophilus, Lactobacillus plantarum and Bifidobacterium breve. […] In another series of tests, the nematodes were additionally treated with cannabidiol (CBD).
The two probiotic bacterial strains Lactobacillus rhamnosus and Lactobacillus plantarum were allowed to grow to stationary phase and mixed with the normal diet of nematodes (OP50) E. coli bacteria). C. elegans of strain CL4176 at L4 larval stage were exposed to the probiotic bacteria and other active agents in the induction of Aβ accumulation by increasing the temperature to 25° C. The number of paralyzed animals was checked every 24 h and determined after 96 h.
In the described Alzheimer's disease animal model assay, the effect of the bacterial strain Pseudomonas fluorescens was tested. Upon induction of Aβ accumulation by increasing temperature to 25° C., nematodes were exposed to Pseudomonas fluorescens bacteria, curcumin or CBD, or a combination of the bacteria and the active agent. The number of paralyzed nematodes was determined 96 h after induction of Aβ accumulation.

CCCCCc1cc2c(c(O)c1C(=O)O)[C@@H]1C=C(C)CC[C@H]1C(C)(C)O2 [THCA, delta-9-tetrahydrocannabinolic acid] was tested, and the “number of paralyzed nematodes” value (60 μl, 96 h, FIGS. 3 and 4) was “reduced”.
Lactobacillus plantarum was tested, and the “paralysis due to Aβ accumulation” value (bacteria grown to stationary phase, mixed with OP50 E. coli diet, 96 h, FIGS. 3 and 4) was “reduction in paralysis” and the “prevention of the effects of Aβ accumulation by combination of bacterium with active agents” value (stationary-phase bacteria combined with curcumin, CBD, THCA or combinations thereof, 96 h, FIGS. 3 and 4) was “significant to synergistic prevention of the effects of Aβ accumulation”.
With C=C(C)[C@@H]1CCC(C)=C[C@H]1c1c(O)cc(CCCCC)cc1O [CBD, cannabidiol] the “number of paralyzed nematodes” value (0.08% (v/v), 96 h, FIGS. 3 and 4) was “reduced”, the “paralytic nematodes, individually” value (Example 3, 96 h after induction of Aβ accumulation, FIGS. 7 and 8) was “reduction in paralytic nematodes” and the “effect of combination with Pseudomonas fluorescens” value (combination of Pseudomonas fluorescens and active agent, 96 h after induction of Aβ accumulation, FIGS. 7 and 8) was “strong synergistic increase in effect”. The “effect of additional treatment with the active agent on the effect of the probiotic bacterial mixture” value (in combination with probiotic bacterial mixture, 72 h after induction of Aβ accumulation, FIG. 1) was “significantly increased the effect of probiotic bacteria”.
